Measurements from patent publication US20240150377A1, “MODULATORS OF CYSTIC FIBROSIS TRANSMEMBRANE CONDUCTANCE REGULATOR” (VERTEX PHARMACEUTICALS INCORPORATED, priority 2020, published 2024).
Where two headings read alike, the source gives them in different places.

Target: CFTR (Homo sapiens, UniProt P13569)
Assay: Membrane potential dye, Enteroid Assay B
Format: cell-based
Conditions: for Ent. B Max Activity: chloride transport as % of triple combination control (Enteroid Assay B); for EC50: read-out: Ent. B EC50
Experimental: Base medium (ADF+++) consisted of Advanced DMEM/Ham's F12, 2 mM Glutamax, 10 mM HEPES, […] penicillin/streptomycin.
Intestinal enteroid maintenance medium (IEMM) consisted of ADF+++, 1× B27 supplement, 1× N2 supplement, 1.25 mM N-acetyl cysteine, 10 mM Nicotinamide, 50 ng/mL hEGF, 10 nM Gastrin, 1 μg/mL hR-spondin-1, 100 ng/mL hNoggin, TGF-b type 1 inhibitor A-83-01, 100 μg/mL Primocin, 10 μM P38 MAPK inhibitor SB202190.
Bath 1 Buffer consisted of 1 mM MgCl2, 160 mM NaCl, 4.5 mM KCl, 10 mM HEPES, 10 mM Glucose, 2 mM CaCl2).
Chloride Free Buffer consisted of 1 mM Magnesium Gluconate, 2 mM Calcium Gluconate, 4.5 mM Potassium Gluconate, 160 mM Sodium Gluconate, 10 mM HEPES, 10 mM Glucose.
BathI Dye Solution consisted of Bath 1 Buffer, 0.04% Pluronic F127, 20 μM Methyl Oxonol, 30 μM CaCCinh-A01, 30 μM Chicago Sky Blue.
Chloride Free Dye Solution consisted of Chloride Free Buffer, 0.04% Pluronic F127, 20 μM Methyl Oxonol, 30 μM CaCCinh-A01, 30 μM Chicago Sky Blue.
Chloride Free Dye Stimulation Solution consisted of Chloride Free Dye Solution, 10 μM forskolin, 100 μM IBMX, and 300 nM Compound III.
Human intestinal epithelial enteroid cells were obtained from the Hubrecht Institute for Developmental Biology and Stem Cell Research, Utrecht, The Netherlands and expanded in T-Flasks as previously described (Dekkers J F, Wiegerinck C L, de Jonge H R, Bronsveld I, Janssens H M, de Winter-de Groot K M, Brandsma A M, de Jong N W M, Bijvelds M J C, Scholte B J, Nieuwenhuis E E S, van den Brink S, Clevers H, van der Ent C K, Middendorp S and M Beekman J M. A functional CFTR assay using primary cystic fibrosis intestinal organoids. Nat Med. 2013 July;19(7):939-45.).
3. Enteroid Cell Harvesting and Seeding
Cells were recovered in cell recovery solution, collected by centrifugation at 650 rpm for 5 min at 4° C., resuspended in TrypLE and incubated for 5 min at 37° C. Cells were then collected by centrifugation at 650 rpm for 5 min at 4° C. and resuspended in IEMM containing 10 μM ROCK inhibitor (RI). The cell suspension was passed through a 40 μm cell strainer and resuspended at 1×10^6 cells/mL in IEMM containing 10 μM RI. Cells were seeded at 5000 cells/well into multi-well plates and incubated for overnight at 37° C., 95% humidity and 5% CO2 prior to assay.
5. Membrane Potential Dye, Enteroid Assay B
Enteroid cells were incubated with test compound in IEMM for 18-24 hours at 37° C., 95% humidity and 5% CO2. […] Briefly, cells were washed 5 times in Bath 1 Buffer. Bath 1 Dye Solution was added and the cells were incubated for 25 min at room temperature. Following dye incubation, cells were washed 3 times in Chloride Free Dye Solution. Chloride transport was initiated by addition of Chloride Free Dye Stimulation Solution and the fluorescence signal was read for 15 min. […] Chloride transport was then expressed as a percentage of the chloride transport following treatment with 1 μM (14S)-8-[3-(2-{Dispiro[2.0.2.1]heptan-7-yl}ethoxy)-1H-pyrazol-1-yl]-12,12-dimethyl-2λ^6-thia-3,9,11,18,23-pentaazatetracyclo[17.3.1.111,14.05,10]tetracosa-1(22),5,7,9,19(23),20-hexaene-2,2,4-trione, 3 μM (R)-1-(2,2-difluorobenzo[d][1,3]dioxol-5-yl)-N-(1-(2,3-dihydroxypropyl)-6-fluoro-2-(1-hydroxy-2-methylpropan-2-yl)-1H-indol-5-yl)cyclopropanecarboxamide and 300 nM acute N-[2,4-bis(1,1-dimethylethyl)-5-hydroxyphenyl]-1,4-dihydro-4-oxoquinoline-3-carboxamide triple combination control (% Activity).

[1] = Table 8, human enteroid cells, 18-24 hours, acute 10 μM forskolin and 300 nM ivacaftor

Chain of CFTR (P13569 with tags, fused parts or gaps DEL508-508): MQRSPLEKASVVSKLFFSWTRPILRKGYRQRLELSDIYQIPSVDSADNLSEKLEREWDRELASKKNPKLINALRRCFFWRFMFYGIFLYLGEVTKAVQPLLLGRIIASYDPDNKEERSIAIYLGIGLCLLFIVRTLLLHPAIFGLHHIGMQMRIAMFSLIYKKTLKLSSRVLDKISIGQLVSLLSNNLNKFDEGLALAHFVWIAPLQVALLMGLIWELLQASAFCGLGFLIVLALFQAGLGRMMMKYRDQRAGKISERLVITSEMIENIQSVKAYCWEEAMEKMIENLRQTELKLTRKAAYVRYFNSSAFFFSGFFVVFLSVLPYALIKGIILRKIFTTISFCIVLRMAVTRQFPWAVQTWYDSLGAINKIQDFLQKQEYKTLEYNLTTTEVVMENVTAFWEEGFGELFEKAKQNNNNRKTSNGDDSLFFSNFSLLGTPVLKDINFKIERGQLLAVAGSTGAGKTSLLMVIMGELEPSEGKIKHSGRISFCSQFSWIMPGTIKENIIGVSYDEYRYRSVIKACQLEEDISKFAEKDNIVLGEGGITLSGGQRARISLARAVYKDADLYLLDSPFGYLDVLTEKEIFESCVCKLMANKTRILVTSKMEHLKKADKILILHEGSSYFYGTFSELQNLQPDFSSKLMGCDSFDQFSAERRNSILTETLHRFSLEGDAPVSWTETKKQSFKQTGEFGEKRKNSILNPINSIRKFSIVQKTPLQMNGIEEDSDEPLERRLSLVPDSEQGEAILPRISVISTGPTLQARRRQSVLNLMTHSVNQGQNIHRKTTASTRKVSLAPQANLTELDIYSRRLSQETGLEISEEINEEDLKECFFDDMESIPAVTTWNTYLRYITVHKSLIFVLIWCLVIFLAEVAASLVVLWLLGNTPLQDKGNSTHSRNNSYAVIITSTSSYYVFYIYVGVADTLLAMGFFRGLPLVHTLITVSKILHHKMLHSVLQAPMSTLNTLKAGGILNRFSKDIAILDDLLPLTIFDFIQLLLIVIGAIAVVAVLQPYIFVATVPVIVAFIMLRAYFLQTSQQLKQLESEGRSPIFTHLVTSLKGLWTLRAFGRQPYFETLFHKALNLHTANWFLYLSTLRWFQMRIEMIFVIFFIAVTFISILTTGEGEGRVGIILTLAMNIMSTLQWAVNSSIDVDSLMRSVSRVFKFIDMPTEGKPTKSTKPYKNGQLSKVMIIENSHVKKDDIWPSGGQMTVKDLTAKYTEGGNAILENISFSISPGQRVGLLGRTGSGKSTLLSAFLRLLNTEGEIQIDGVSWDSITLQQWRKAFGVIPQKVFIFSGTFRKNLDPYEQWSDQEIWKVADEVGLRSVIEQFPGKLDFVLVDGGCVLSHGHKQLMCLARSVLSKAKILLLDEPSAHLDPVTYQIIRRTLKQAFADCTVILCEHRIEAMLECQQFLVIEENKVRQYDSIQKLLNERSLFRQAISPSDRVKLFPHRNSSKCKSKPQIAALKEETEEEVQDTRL

SMILES | Ent. B Max Activity (Table 8) | EC50 [1] [nM] | Ent. B Max Activity (%) (Table 9) | further results
Cc1cccc(C)c1-c1cc2nc(n1)NS(=O)(=O)c1cccc(c1)C(=O)N(CC13CCC(O)(CC1)CC3)[C@H](CC(C)(C)C)CO2 [Compound 800] |  |  | +++ (+++ is >600%) | EC50 (Table 9): < 1000 nM
Cc1cccc(C)c1-c1cc2nc(n1)NS(=O)(=O)c1cccc(c1)C(=O)N(Cc1ncc(C(C)C)cn1)[C@H](CC(C)(C)C)CO2 [Compound 1077] |  |  | +++ (+++ is >600%) | EC50 (Table 9): < 1000 nM
CC(=O)NCCCN1C(=O)c2cccc(c2)S(=O)(=O)Nc2nc(cc(-c3c(C)cccc3C)n2)OC[C@H]1CC(C)C [Compound 404] | +++ (+++ is >60%) | < 1000 |  | 
Cc1cccc(C)c1-c1cc2nc(n1)NS(=O)(=O)c1cccc(c1)C(=O)N(CC1CC(C(C)(C)O)C1)[C@H](CC(C)(C)C)CO2 (some centres unmarked) [Compound 1020] | +++ (+++ is >60%) | < 1000 |  | 
Cc1cccc(C)c1-c1cc2nc(n1)NS(=O)(=O)c1cccc(c1)C(=O)N(CC(C)(C)O)[C@H](CC(C)C)CO2 [Compound 43, (11R)-6-(2,6-Dimethylphenyl)-12-(2-hydroxy-2-methyl-propyl)-11-isobutyl-2,2-dioxo-9-oxa-2λ^6-thia-3,5,12,19-tetrazatricyclo[12.3.1.14,8]nonadeca 1(18),4(19),5,7,14,16-hexaen-13-one] | +++ (+++ is >60%) | < 1000 |  | 
Cc1cccc(C)c1-c1cc2nc(n1)NS(=O)(=O)c1cccc(c1)C(=O)N(CC1Cc3ccccc3C1)[C@H](CC(C)(C)C)CO2 [Compound 808] | +++ (+++ is >60%) | < 1000 |  | 
Cc1cccc(C)c1-c1cc2nc(n1)NS(=O)(=O)c1cc(n(C)n1)C(=O)N(Cc1ccccc1)[C@H](CC(C)(C)C)CO2 [Compound 926] | ++ (++ is 30-60%) | 3000 to 30000 |  | 
Cc1cccc(C)c1-c1cc2nc(n1)NS(=O)(=O)c1cccc(c1)C(=O)N(CC1CCC(C)(O)CC1)[C@H](CC(C)(C)C)CO2 (single isomer, unassigned) [Compound 149] | +++ (+++ is >60%) | < 1000 |  | 
Cc1cccc(C)c1-c1cc2nc(n1)NS(=O)(=O)c1cccc(n1)C(=O)N(Cc1ccccn1)[C@H](CC(C)(C)C)CO2 [Compound 1084] | +++ (+++ is >60%) | < 1000 |  | 
Cc1cccc(C)c1-c1cc2nc(n1)NS(=O)(=O)c1cccc(c1)C(=O)N(CCCC(C)(C)O)[C@H](CC(C)(C)C)CO2 [Compound 1093] | +++ (+++ is >60%) | < 1000 |  | 
Cc1cccc(C)c1-c1cc2nc(n1)NS(=O)(=O)c1cccc(c1)C(=O)N(CCCO)[C@H](CC(C)C)CO2 [Compound 96, (11R)-6-(2,6-Dimethylphenyl)-12-(3-hydroxypropyl)-11-(2-methylpropyl)-9-oxa-2λ^6-thia-3,5,12,19-tetraazatricyclo[12.3.1.14,8]nonadeca-1(18),4,6,8(19),14,16-hexaene-2,2,13-trione] | +++ (+++ is >60%) | < 1000 |  | 
Cc1cccc(C)c1-c1cc2nc(n1)NS(=O)(=O)c1cc(nn1C)C(=O)N(Cc1ccccn1)[C@H](CC(C)(C)C)CO2 [Compound 934] | ++ (++ is 30-60%) | < 1000 |  | 
Cc1cccc(C)c1-c1cc2nc(n1)NS(=O)(=O)c1cccc(n1)C(=O)N(Cc1cccnc1)[C@H](CC(C)(C)C)CO2 [Compound 1083] | +++ (+++ is >60%) | < 1000 |  | 
Cc1cccc(C)c1-c1cc2nc(n1)NS(=O)(=O)c1cccc(c1)C(=O)N(CC(C)(C)C)[C@H](CC(C)C)CO2 [Compound 400] | ++ (++ is 30-60%) | < 1000 |  | 
CNC(=O)CCCN1C(=O)c2cccc(c2)S(=O)(=O)Nc2nc(cc(-c3c(C)cccc3C)n2)OC[C@H]1CC(C)C [Compound 406] | +++ (+++ is >60%) | 1000 to 3000 |  | 
COC(=O)N1CCn2ncc(CN3C(=O)c4cccc(c4)S(=O)(=O)Nc4nc(cc(-c5c(C)cccc5C)n4)OC[C@H]3CC(C)(C)C)c2C1 [Compound 403] | +++ (+++ is >60%) | < 1000 |  | 
Cc1cccc(C)c1-c1cc2nc(n1)NS(=O)(=O)c1cccc(c1)C(=O)N(C[C@H]1C[C@@H](C(C)(C)O)C1)[C@H](CC(C)(C)C)CO2 [Compound 335] | +++ (+++ is >60%) | < 1000 |  | 
Cc1cccc(C)c1-c1cc2nc(n1)NS(=O)(=O)c1cccc(c1)C(=O)N(CCCC(=O)N(C)C)[C@H](CC(C)C)CO2 [Compound 92, 4-[(11R)-6-(2,6-Dimethylphenyl)-11-isobutyl-2,2,13-trioxo-9-oxa-2λ^6-thia-3,5,12,19-tetrazatricyclo[12.3.1.14,8]nonadeca-1(18),4(19),5,7,14,16-hexaen-12-yl]-N,N-dimethyl-butanamide] | +++ (+++ is >60%) | < 1000 |  | 
Cc1cccc(C)c1-c1cc2nc(n1)NS(=O)(=O)c1cccc(c1)C(=O)N(CCCNC(=O)OC(C)C)[C@H](CC(C)C)CO2 [Compound 408] |  |  |  | Ent. B Max Activity (Table 7): +++ (+++ is >60%); EC50 (Table 7, human enteroid cells, 18-24 hours, acute 10 μM forskolin and 300 nM ivacaftor): < 1000 nM

The next lines start with results.

Ent. B Max Activity (Table 8) | EC50 [1] [nM] | Ent. B Max Activity (%) (Table 9) | SMILES | further results
++ (++ is 30-60%) | 1000 to 3000 |  | Cc1cccc(C)c1-c1cc2nc(n1)NS(=O)(=O)c1cccc(c1)C(=O)N(Cc1ccc(C(C)(C)O)cc1)[C@H](CCC(C)(C)O)CO2 [Compound 661] | 
 |  | +++ (+++ is >600%) | Cc1cccc(C)c1-c1cc2nc(n1)NS(=O)(=O)c1cccc(c1)C(=O)N(Cc1cnc(C(C)(C)C)nc1)[C@H](CC(C)(C)C)CO2 [Compound 788] | EC50 (Table 9): < 1000 nM
 |  | +++ (+++ is >600%) | Cc1cccc(C)c1-c1cc2nc(n1)NS(=O)(=O)c1cccc(c1)C(=O)N(Cc1ccc3c(c1)oc(=O)n3C)[C@H](CC(C)(C)C)CO2 [Compound 802] | EC50 (Table 9): < 1000 nM
 |  | +++ (+++ is >600%) | Cc1cccc(C)c1-c1cc2nc(n1)NS(=O)(=O)c1cccc(c1)C(=O)N(Cc1ncc(Br)cn1)[C@H](CC(C)(C)C)CO2 [Compound 807] | EC50 (Table 9): < 1000 nM
+ (+ is <30%) |  |  | Cc1cccc(C)c1-c1cc2nc(n1)NS(=O)(=O)c1cccc(c1)C(=O)N(Cc1cnc(O)nc1)[C@H](CC(C)(C)C)CO2 [Compound 1096] | 
 |  | +++ (+++ is >600%) | Cc1cccc(C)c1-c1cc2nc(n1)NS(=O)(=O)c1cccc(c1)C(=O)N(Cc1ncccc1C(C)(C)O)[C@H](CC(C)(C)C)CO2 [Compound 385] | EC50 (Table 9): < 1000 nM
 |  | +++ (+++ is >600%) | Cc1cccc(C)c1-c1cc2nc(n1)NS(=O)(=O)c1cccc(c1)C(=O)N(Cc1ccc(C#CC(C)(C)C#N)cc1)[C@H](CC(C)(C)C)CO2 [Compound 790] | EC50 (Table 9): < 1000 nM
 |  | +++ (+++ is >600%) | Cc1cccc(C)c1-c1cc2nc(n1)NS(=O)(=O)c1cccc(c1)C(=O)N(Cc1ncc(Cl)cn1)[C@H](CC(C)(C)C)CO2 [Compound 805] | EC50 (Table 9): < 1000 nM
+++ (+++ is >60%) | < 1000 |  | Cc1cccc(C)c1-c1cc2nc(n1)NS(=O)(=O)c1cccc(c1)C(=O)N(Cc1cnccn1)[C@H](CC(C)(C)C)CO2 [Compound 1100] | 
 |  | +++ (+++ is >600%) | CCCc1ccc(CN2C(=O)c3cccc(c3)S(=O)(=O)Nc3nc(cc(-c4c(C)cccc4C)n3)OC[C@H]2CC(C)(C)C)cc1 [Compound 793] | 
